Like-named read-outs stand apart in the source and are kept apart here.
Tests used:
Human fibroblasts = assay: Cytophotoprotection of human fibroblasts against UVA radiation (cell proteins, MDA released); format: cell-based; conditions: for activity at 0.01 % strength / activity at 0.03 % strength: Homo sapiens, Fibroblast, light or radiation study, % against control, UVA 20 J/cm2; for activity at 0.01 % strength: dose 0.01 % w/v; for activity at 0.03 % strength: dose 0.03 % w/v
Method: The cytoprotection against UVA irradiation has been evaluated by a test on human fibroblasts because UVA radiation penetrates through the epidermis until the dermis where it induces oxidative stress, mainly by activation of photosensitising biological components, which catalyse the formation of ROS like anion superoxide, hydrogen peroxide and singlet oxygen, and lipoperoxydation of the cell membrane. These oxidative stress effects are evaluated in vitro due to measuring of the level of released malondialdehyde (MDA) (Morlière P., Moisan A., Santus R., Huppe G., Mazière J.C., Dubertret L. UV-A induced lipid peroxydation in cultured human fibroblasts. Biochim. Biophys. Acta (1991) Vol 1084, pp 261-269). The lipoperoxides formed after UVA irradiation undergo a decay into malondialdehyde which can form cross-links between many biological molecules like proteins with inhibition of enzymes and nucleic bases with risk of mutagenesis.
Human fibroblasts were inoculated with growth medium (DMEM+FCS) and incubated 3 days at 37°C, with 5% CO2. The growth medium was then exchanged by a medium containing the ingredient to be tested and was incubated 2 days at 37°C under an atmosphrere with 5 % of carbon dioxide. After the exchange of the medium bya balanced salt solution, the cell culture was irradiated with UVA radiation (20J/cm^2). Cell proteins were measured, and MDA released in the supernatant was determined spectrophotometrically.

Lipoxygenase = assay: Inhibition test on lipoxygenase (released superoxide anions, luminol luminescent probes); format: biochemical; conditions: rate of released superoxide anions; mean of 2 assays
Method: The anti-free radical (anti-FR) activity has been evaluated by chemical tests for the evaluation of the potential to scavenge free radicals R° (DPPH° test) and hydroxyl radicals HO°. Furthermore the anti-FR activity has been evaluated by biochemical tests to address the potential for scavenging of a kind of reactive oxygen species (ROS), so called superoxide anions (02°). […] Lipoxygenase was incubated with a specific substrate (unsaturated fatty acid) and the ingredient to be tested. Then the rate of released superoxide anions was evaluated by Luminol luminescent probes. The IC50 (mean of 2 assays) of dihydrosinapinic acid was 0.0002 % (w/v).

[1] = Anti free radicals: DPPH° (diphenylpicryl-hydrazyl) test; conditions: optical density at 513 nm; average of two assays
Method: (§1) The anti-free radical (anti-FR) activity has been evaluated by chemical tests for the evaluation of the potential to scavenge free radicals R° (DPPH° test) and hydroxyl radicals HO°. Furthermore the anti-FR activity has been evaluated by biochemical tests to address the potential for scavenging of a kind of reactive oxygen species (ROS), so called superoxide anions (02°).
The DPPH° scavenging effect of dihydrosinapinic acid has been measured by recording the optical density at 513 nm (DEBY C. Relation entre les acides gras essentiels et le taux des antioxydants tissulaires chez la souris. SOCIETE BELGE DE BIOLOGIE, séance du 19 décembre 1970, pp: 2675-2680). The IC50 (Inhibitory Concentration 50 %: dose for which 50 % of DPPH° is scavenged, average of two assays) of dihydrosinapinic acid is 0.0006 % (w/v).

[2] = Anti-inflammatory activity on human leucocytes cultured in vitro (Zymosan-induced respiratory burst, luminol luminescence); format: cell-based; conditions: human, leukocytes, % against control, average of 2-3 assays, each carried out 3 times, read-out: Cell number
Method: (§2) Human leukocytes (Polymorphonuclear neutrophilic granulocytes) were incubated with dihydrosinapinic acid during 1 day at 37°C under an atmosphere with 5 % carbon dioxide. The respiratory burst was induced by addition of a yeast extract ("Zymosan"). After incubation for 0.5 hours at 37 °C under an atmosphere with 5 % carbon dioxide the cell number was measured using an automatic cell counter and the rate of released reactive oxygen species was recorded by a luminescent reaction with luminol. (Pieper G.M., Gross G.J. EMD 52692 (bimakalim) a new potassium channel opener, attenuates luminol-enhanced chemiluminescence and superoxide anion radical formation by Zymosan-activated polymorphonuclear leukocytes (Immunopharmacology (1992) vol 23, pp 191-197). Table 3

[3] = system: Human leukocytes (Polymorphonuclear neutrophilic granulocytes); assay: as above; format: cell-based
Method: as §2

[4] = Anti hydroxyl radicals: HO° test with deoxyribose (Fenton's reaction); conditions: no EDTA; optical density at 532 nm; average of 2 assays
Method: as §1
The hydroxyle radical HO* (formed by H2O2 in presence of Fe++) oxidises deoxyribose, then a pink compound is formed by condensation of thiobarbituric acid with the oxidised form of deoxyribose. The level of oxidised deoxyribose is determined by measurement of the optical density at 532 nm.

[5] = average of 2 assays, each carried out three times, read-out: Cell proteins
[6] = irradiated control = 100, read-out: MDA released

Compound: COc1cc(CCC(=O)O)cc(OC)c1O [Dihydrosinapinic acid, 3-(4-hydroxy-3,5-dimethoxyphenyl) propionic acid]
- activity at 0.01 % strength (Human fibroblasts; [5]): 121%
- activity at 0.01 % strength (Human fibroblasts; [6]): 47%
- activity at 0.03 % strength (Human fibroblasts; [5]): 140%
- activity at 0.03 % strength (Human fibroblasts; [6]): 12%
- protection of the cells against UVA-induced MDA released (Human fibroblasts; result in words, after incubation of the fibroblasts): strong protection
- IC50 (lipoxygenase inhibition) (Lipoxygenase): 0.0002 % (w/v)
- IC50 (dose for which 50 % of DPPH° is scavenged) [1]: 0.0006 % (w/v)
- viability ([2]; dose 0.0001 % w/v): 99%
- viability ([2]; dose 0.0003 % w/v): 98%
- activity at 0.0001 % strength ([3]; Homo sapiens, Leukocyte, % against control, dose 0.0001 % w/v, Zymosan-activated, read-out: Released ROS): 25%
- activity at 0.0003 % strength ([3]; Homo sapiens, Leukocyte, % against control, dose 0.0003 % w/v, Zymosan-activated, read-out: Released ROS): 13%
- respiratory burst (release of reactive oxygen species) ([3]; result in words, Zymosan-activated polymorphonuclear neutrophilic granulocytes): inhibited
- IC50 (HO° test with deoxyribose) [4]: 0.025 % (w/v)
